How the values were obtained:
[1] = system: mdx mice; assay: Dosing of metabolic and endocrine biomarkers in blood, serum and tissues, mdx mice, long-term (40 weeks) weekly prednisone; assay type: in vivo
[2] = system: GRE-KRE genomic sites (Mef2C, Bckdha, Pck1, Nmnat3); assay: Luciferase reporter experiments in electroporated mdx myofibers; assay type: in vivo, mouse; settings: prednisone pulse 1 mg/kg combined with Klf15 overexpression
Source text: Luciferase experiments in live myofibers. Luciferase plasmids containing regulatory fragments were obtained cloning genomic sequences in the pGL4.23 backbone (#E8411; Promega, Madison, Wis.) using the KpnI-XhoI sites upstream of the minimal promoter site. Fragments were cloned conserving the genomic orientation with regards to transcriptional orientation, adding KpnI and XhoI tails to the appropriate extremities via Phusion PCR. Wildtype fragments […] were cloned from wildtype C57Bl/6J genomic DNA, while mutated fragments (Δ sites) were amplified from ad-hoc synthetized DNA oligonucleotides, using genomic sequences from the C57Bl/6J genomic background (see Table 5 for a complete list of sequences). Flexor digitorum brevis (FDB) fibers were transfected by in vivo electroporation. Methods were described previously in (DiFranco et al., 2009) with modifications described in (Demonbreun and McNally, 2015). Briefly, the hindlimb footpad was injected with 10 μl hyaluronidase (8 units) (Cat #H4272, Sigma, St. Louis, Mo.). […] Ex vivo luciferase assay was performed on whole, electroporated FDB muscles. […] Luminescence was recorded at the Synergy HTX multi-mode 96-well plate reader (BioTek®, Winooski, Vt.). […] Results are expressed as fold change to average vehicle. All luciferase quantitation assays were conducted blinded to treatment groups. […]

## C[C@]12C=CC(=O)C=C1CC[C@@H]1[C@@H]2C(=O)C[C@@]2(C)[C@H]1CC[C@]2(O)C(=O)CO [prednisone, Prednisone]
[1]
  ATP, NAD+, and glycogen in muscle and blood lactate: increase
[2]
  Fluc reporter activity of GRE-KRE constructs: additive effect
